Results on nine compounds are retold here after paper PMC7571217, “Adenosine Receptor Ligands: Coumarin–Chalcone Hybrids as Modulating Agents on the Activity of hARs” (Molecules, 2020).

As usually defined, the Ki is the dissociation constant of the complex between target and ligand, obtained from inhibition or displacement. The melting point is the temperature of the solid-liquid transition. For orientation: Kd means the concentration at which binding is half-saturated.

The target of data set [1] is hA1 (Homo sapiens, UniProt P30542). As to the kind of experiment: biochemical. The protocol: (§1) (5′-N-ethylcarboxamidoadenosine) to hA2A; and specific binding of [^3H]HEMADO (2-(1-hexynyl)-N^6-methyladenosine) to hA3. […] Due to the lack of a suitable radioligand for the hA2B receptor, the potency of antagonists at the hA2B receptor was determined by inhibition of NECA-stimulated adenylyl cyclase activity with increasing concentrations of antagonist.
(§2) The binding affinity for hA1, hA2A, hA3 of the synthetized compounds was evaluated using radioligand competition experiments in CHO cells that were stably transfected with the individual receptor subtypes. […] Due to the lack of a suitable radioligand for the hA2B receptor, the potency of antagonists at the hA2B receptor (expressed on CHO cells) was determined by inhibition of NECA-stimulated adenylyl cyclase activity. The IC50 for inhibition of cAMP (cyclic adenosine monophosphate) production was determined and converted to Ki values using the Cheng and Prusoff equation [56].
(§3) Ki values (dissociation constants) were determined in radioligand competition experiments with 7–8 different concentrations of test compound and each concentration was tested in duplicate. […] The program Prism 6 (GraphPad Software) was used for the analysis of the competition curves.

Data set [2] deals with T1, hA2A (Homo sapiens, UniProt P29274).
T1 construct: expressed in transfected cells; host or cells: CHO cells (stably transfected)
Description: Radioligand competition binding, [3H]NECA, hA2A in CHO cells. The conditions noted are these: [3H]NECA 10 nM. The protocol:
as §1, §2, §3

Data set [3] deals with T2, hA3 (Homo sapiens, UniProt P0DMS8).
T2 construct: expressed in transfected cells; host or cells: CHO cells (stably transfected)
T2 sequence (P0DMS8 1-318): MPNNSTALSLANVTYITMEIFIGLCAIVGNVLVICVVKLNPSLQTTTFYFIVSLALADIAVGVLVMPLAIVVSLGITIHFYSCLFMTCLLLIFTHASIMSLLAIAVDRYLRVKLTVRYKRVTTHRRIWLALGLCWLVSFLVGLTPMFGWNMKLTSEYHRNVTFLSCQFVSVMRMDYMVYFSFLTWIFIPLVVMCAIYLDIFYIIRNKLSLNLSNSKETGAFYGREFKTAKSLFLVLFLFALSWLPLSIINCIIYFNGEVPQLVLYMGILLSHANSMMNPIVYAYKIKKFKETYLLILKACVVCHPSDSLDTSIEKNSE
Description: Radioligand competition binding, [3H]HEMADO, hA3 in CHO cells. Particulars: [3H]HEMADO 1 nM, geometric mean of 3 experiments (95% CI). As to the method:
as §1, §2, §3

Data set [4] addresses T2, hA3. Particulars: radioligand used at 1 nM; ref [44],[45]; cited from earlier work.

Chain of hA1 (P30542 whole entry): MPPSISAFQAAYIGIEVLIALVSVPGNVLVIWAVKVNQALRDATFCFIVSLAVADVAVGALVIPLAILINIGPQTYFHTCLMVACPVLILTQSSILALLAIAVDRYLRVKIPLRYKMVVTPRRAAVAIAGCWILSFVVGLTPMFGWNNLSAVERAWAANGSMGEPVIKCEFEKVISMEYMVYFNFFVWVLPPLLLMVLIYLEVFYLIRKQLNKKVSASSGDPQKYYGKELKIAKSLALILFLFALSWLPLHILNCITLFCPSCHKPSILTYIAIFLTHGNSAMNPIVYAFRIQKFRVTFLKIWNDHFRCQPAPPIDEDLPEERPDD
T1 sequence (P29274 whole entry): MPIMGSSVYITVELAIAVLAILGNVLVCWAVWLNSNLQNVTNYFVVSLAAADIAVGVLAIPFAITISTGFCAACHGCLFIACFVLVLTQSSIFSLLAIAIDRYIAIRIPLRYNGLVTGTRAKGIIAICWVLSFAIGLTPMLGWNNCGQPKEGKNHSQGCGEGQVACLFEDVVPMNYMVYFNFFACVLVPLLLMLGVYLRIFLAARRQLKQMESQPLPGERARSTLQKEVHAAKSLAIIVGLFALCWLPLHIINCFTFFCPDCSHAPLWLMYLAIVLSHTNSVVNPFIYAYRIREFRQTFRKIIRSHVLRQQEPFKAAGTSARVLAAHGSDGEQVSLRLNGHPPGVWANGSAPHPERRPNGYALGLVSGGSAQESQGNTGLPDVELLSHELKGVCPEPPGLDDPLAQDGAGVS

In the case of `COc1ccc(C(=O)c2cc3ccccc3oc2=O)cc1OC` [Compound 1, 3-(3′,4′-Dimethoxybenzoyl)coumarin], the melting point was 190 to 191 °C. The Ki in data set [1] is > 100 µM. For the same compound, the Ki in data set [2] is > 100 µM. The inhibitory constant (Ki) in data set [3] was > 100 µM.
Compound `COc1ccc2oc(=O)c(C(=O)c3ccc(OC)c(OC)c3)cc2c1` [Compound 2, 6-Methoxy-3-(3′,4′-dimethoxybenzoyl)coumarin] gave a melting point of 202 to 203 °C. Moreover, the Ki in data set [1] is > 100 µM. For the same compound, the Ki in data set [2] was > 100 µM. For the same compound, the Ki in data set [3] was > 100 µM.
`COc1cc(OC)c2cc(C(=O)c3ccc(OC)c(OC)c3)c(=O)oc2c1` [Compound 3, 5,7-Dimethoxy-3-(3′,4′-dimethoxybenzoyl)coumarin] gave a melting point of 210 to 211 °C. The inhibition constant (Ki) in data set [1] is > 30 µM. The same compound returned an inhibition constant Ki in data set [3] of 9.03 µM.
The like results for `COc1ccc(C(=O)c2cc3c(OC)cc(OC)cc3oc2=O)cc1` [Compound 4, 5,7-Dimethoxy-3-(4′-methoxybenzoyl)coumarin] were, in that order, 174 to 175 °C, > 100 µM and 2.49 µM.
Consider `O=C(c1ccc(O)c(O)c1)c1cc2ccccc2oc1=O` [Compound 5], for which the Ki in data set [1] was 39.5 µM; in data set [3], 34.5 µM.
The like results for `O=C(c1ccc(O)c(O)c1)c1cc2cc(O)ccc2oc1=O` [Compound 6] were, in that order, 54 µM and > 60 µM.
With `O=C(c1ccc(O)c(O)c1)c1cc2c(O)cc(O)cc2oc1=O` [Compound 7], the values for the Ki in data set [1] and in data set [3] were 17.7 µM and > 30 µM, respectively.
Regarding `O=C(c1ccc(O)cc1)c1cc2c(O)cc(O)cc2oc1=O` [Compound 8, 5,7-Dihydroxy-3-(4′-hydroxybenzoyl)coumarin], the melting point was in the range of 290 to 292 °C. In addition, affinity in data set [1] was put at a Ki of 29.1 µM. In addition, in data set [3], the Ki is > 60 µM.
Take `CCCCC#Cc1nc(NC)c2ncn([C@@H]3O[C@H](CO)[C@@H](O)[C@H]3O)c2n1` [[^3H]HEMADO, 2-(1-hexynyl)-N^6-methyladenosine]: the Kd in data set [4] is 0.0012 µM.
